Measured values as given in patent publication US12398142B2, “Abelson non-tyrosine kinase compounds for the treatment of neurodegenerative diseases” (Emory University, priority 2019, dated 2025).
Like-named read-outs stand apart in the source and are kept apart here.

Assays:
[1] = target: CYP2D6 (Homo sapiens (Human), UniProt P10635); experiment: CYP2D6 IC50; format: in vitro ADME; conditions: unit given as mM
[2] = target: hERG (Homo sapiens (Human), UniProt Q12809); experiment: in vitro; conditions: for SI / selectivity ratio at 4 h: human, pH 7.5
Chain of hERG (Q12809 whole entry): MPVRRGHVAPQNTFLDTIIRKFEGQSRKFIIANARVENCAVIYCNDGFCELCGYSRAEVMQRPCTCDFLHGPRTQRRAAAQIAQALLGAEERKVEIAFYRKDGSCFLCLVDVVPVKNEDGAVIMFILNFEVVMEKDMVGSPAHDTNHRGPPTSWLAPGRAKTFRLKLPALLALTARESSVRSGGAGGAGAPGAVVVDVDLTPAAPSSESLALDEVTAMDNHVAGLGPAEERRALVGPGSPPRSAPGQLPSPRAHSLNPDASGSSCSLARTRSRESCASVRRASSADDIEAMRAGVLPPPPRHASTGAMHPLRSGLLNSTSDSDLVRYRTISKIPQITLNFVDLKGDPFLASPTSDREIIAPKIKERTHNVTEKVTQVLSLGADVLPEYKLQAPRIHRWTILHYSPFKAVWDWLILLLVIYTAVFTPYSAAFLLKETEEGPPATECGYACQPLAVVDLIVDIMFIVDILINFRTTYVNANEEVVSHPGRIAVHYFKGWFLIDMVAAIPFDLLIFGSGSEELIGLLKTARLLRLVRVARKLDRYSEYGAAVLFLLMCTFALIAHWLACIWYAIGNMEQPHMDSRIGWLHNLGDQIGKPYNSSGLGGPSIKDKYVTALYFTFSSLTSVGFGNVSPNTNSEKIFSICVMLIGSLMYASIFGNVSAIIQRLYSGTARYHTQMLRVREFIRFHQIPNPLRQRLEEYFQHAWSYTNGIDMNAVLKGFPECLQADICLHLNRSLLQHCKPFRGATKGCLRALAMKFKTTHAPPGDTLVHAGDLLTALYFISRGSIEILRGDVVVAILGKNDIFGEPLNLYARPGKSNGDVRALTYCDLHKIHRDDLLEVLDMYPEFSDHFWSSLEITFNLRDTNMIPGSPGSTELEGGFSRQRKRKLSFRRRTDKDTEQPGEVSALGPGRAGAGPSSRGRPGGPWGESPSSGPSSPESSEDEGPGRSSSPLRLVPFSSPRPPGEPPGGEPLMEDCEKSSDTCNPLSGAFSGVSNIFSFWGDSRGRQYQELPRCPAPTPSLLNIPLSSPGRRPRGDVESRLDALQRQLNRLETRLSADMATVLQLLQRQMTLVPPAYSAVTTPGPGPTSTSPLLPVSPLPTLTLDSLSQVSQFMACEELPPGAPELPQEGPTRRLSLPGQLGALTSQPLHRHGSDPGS
Description: Compounds were prepared as 10 mM DMSO stock and stored at −80° C.
Assay Format: The assay is based on the competition of fluorescently labeled Tracer binding to the membrane preparation containing hERG.
Assay conditions: 1 nM Predictor™ hERG Tracer Red; 1X Predictor™ hERG Membrane
Assay Procedure: Compounds in DMSO were added into the Membrane mixture by using Acoustic Technology. Tracer was added, and gentled mixed in the dark. FP was measured after 4 hours incubation at room temperature and mP calculated.

[3] = target: ABL1 (Homo sapiens (Human), UniProt P00519); experiment: Kinase profiling, ABL1 10-dose IC50; format: biochemical
Chain of ABL1 (P00519 whole entry): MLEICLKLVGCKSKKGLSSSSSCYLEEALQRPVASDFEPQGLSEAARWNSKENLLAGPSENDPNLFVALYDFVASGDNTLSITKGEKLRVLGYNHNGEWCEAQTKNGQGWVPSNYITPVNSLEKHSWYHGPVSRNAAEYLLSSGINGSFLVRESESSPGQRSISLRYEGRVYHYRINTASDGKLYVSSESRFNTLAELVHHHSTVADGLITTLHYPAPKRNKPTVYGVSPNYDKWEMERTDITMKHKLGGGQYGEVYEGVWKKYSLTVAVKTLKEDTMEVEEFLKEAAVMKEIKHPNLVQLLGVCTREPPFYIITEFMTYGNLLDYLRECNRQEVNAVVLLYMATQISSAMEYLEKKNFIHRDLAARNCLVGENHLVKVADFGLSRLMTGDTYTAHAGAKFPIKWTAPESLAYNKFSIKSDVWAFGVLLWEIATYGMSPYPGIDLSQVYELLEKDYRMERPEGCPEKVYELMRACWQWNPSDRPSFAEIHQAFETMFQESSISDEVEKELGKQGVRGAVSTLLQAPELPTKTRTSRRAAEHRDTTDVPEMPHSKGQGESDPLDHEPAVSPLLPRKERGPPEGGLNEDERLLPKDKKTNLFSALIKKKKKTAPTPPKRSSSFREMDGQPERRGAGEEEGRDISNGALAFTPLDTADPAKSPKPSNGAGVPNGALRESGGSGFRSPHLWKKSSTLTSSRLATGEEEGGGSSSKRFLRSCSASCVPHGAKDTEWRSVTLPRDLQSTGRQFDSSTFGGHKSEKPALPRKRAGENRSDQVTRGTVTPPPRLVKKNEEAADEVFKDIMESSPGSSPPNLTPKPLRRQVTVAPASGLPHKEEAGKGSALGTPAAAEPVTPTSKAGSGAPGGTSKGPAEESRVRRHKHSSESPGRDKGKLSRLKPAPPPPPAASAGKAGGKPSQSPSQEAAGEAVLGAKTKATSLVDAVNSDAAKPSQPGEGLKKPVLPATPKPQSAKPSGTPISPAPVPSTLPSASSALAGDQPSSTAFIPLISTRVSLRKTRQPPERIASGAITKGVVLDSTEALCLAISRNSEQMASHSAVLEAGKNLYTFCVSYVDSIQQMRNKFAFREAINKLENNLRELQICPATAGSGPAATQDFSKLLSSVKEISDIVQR

[4] = target: CYP3A4 (Homo sapiens (Human), UniProt P08684); experiment: CYP3A4 IC50; format: in vitro ADME; conditions: unit given as mM
Chain of CYP3A4 (P08684 whole entry, species assumed): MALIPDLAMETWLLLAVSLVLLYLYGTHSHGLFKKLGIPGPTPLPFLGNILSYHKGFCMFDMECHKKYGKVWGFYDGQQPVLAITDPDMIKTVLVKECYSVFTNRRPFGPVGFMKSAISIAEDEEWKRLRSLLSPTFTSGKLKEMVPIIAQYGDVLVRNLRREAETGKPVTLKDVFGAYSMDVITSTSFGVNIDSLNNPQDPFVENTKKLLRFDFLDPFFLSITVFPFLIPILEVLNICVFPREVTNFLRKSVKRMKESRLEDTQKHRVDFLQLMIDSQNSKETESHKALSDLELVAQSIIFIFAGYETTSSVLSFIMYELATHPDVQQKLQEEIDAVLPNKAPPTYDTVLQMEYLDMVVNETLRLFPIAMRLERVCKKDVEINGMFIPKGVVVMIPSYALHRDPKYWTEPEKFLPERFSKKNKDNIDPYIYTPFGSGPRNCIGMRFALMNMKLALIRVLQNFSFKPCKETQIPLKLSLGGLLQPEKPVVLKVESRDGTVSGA

[5] = 10 μM ATP, second run (CD-1-051, ZD-3-167, CD-1-067), read-out: Compound IC50 ABL1 Data 1
[6] = 10 μM ATP, second run, read-out: Compound IC50 ABL1 Data 2
[7] = summary table, read-out: Abl1 IC50
[8] = IC50 of Tracer Binding hERG AVERAGE, first run, average of duplicates
[9] = IC50 of Tracer Binding hERG Data 1, first run, 4 hours incubation
[10] = IC50 of Tracer Binding hERG Data 2, first run
[11] = hERG IC50, summary table, unit given as mM
[12] = 10 μM ATP, first run (TK3-141, TK3-144, CD-1-002), read-out: Compound IC50 ABL1 Data 1
[13] = 10 μM ATP, first run, average of duplicates, read-out: Compound IC50 ABL1 Avg
[14] = 10 μM ATP, first run, read-out: Compound IC50 ABL1 Data 2
[15] = Average hERG (IC50), second run, average
[16] = IC50 of Tracer Binding hERG Data 1, second run
[17] = IC50 of Tracer Binding hERG Data 2, second run
[18] = 10 μM ATP, second run, average of duplicates, read-out: Compound IC50 ABL1 Avg

Chain of CYP2D6 (P10635 whole entry, species assumed): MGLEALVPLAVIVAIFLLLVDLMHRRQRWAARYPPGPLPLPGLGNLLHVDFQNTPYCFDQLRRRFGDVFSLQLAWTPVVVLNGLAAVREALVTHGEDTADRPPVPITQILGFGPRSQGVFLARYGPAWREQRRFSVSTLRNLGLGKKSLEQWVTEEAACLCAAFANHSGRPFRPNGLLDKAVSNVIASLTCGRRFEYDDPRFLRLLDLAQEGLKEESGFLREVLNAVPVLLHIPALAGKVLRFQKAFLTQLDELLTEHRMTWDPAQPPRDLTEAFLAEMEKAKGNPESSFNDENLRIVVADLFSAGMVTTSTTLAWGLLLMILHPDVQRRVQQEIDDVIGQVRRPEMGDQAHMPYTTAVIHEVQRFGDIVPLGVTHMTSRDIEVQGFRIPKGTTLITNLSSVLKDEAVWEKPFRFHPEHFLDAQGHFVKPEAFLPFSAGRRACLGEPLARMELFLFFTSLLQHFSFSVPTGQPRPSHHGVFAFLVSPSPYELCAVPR

Row | SMILES | IC50 [1] | IC50 [3, 5] | IC50 [3, 6] | IC50 [3, 7] | IC50 [4] | IC50 [3, 12] | IC50 [3, 13] | IC50 [3, 14] | IC50 [3, 18] | SI [2] | IC50 [2, 8] | IC50 [2, 9] | IC50 [2, 10] | IC50 [2, 11] | IC50 [2, 15] | IC50 [2, 16] | IC50 [2, 17] | selectivity ratio at 4 h [2]
1 | COCCN1CCN(Cc2ccc(NC(=O)c3ccc(C)c(C#Cc4cnc5cccnn45)c3)cc2C2CC2)CC1 [CD-1-002, N-[3-cyclopropyl-4-[[4-(2-methoxyethyl)piperazin-1-yl]methyl]phenyl]-3-(2-imidazo[1,2-b]pyridazin-3-ylethynyl)-4-methyl-benzamide] | 0.0248 mM |  |  | 0.64 nM | 0.0128 mM | 0.686 nM | 0.643 nM | 0.601 nM |  | 126 | 81 nM | 62 nM | 100 nM | 81 nM |  |  |  | 
2 | Cc1ccc(C(=O)Nc2ccc(CN3CCc4cn[nH]c4C3)c(Cl)c2)cc1C#Cc1cnc2cccnn12 [CD-1-051, N-[3-chloro-4-(1,4,5,7-tetrahydropyrazolo[3,4-c]pyridin-6-ylmethyl)phenyl]-3-(2-imidazo[1,2-b]pyridazin-3-ylethynyl)-4-methyl-benzamide] | 0.03 mM | 11 nM | 8.87 nM | 9.93 nM | 0.00557 mM |  |  |  | 9.93 nM | 506 |  |  |  | 5020 nM | 5020 nM | 3840 nM | 6200 nM | 506
3 | Cc1cn(-c2cc(NC(=O)c3ccc(C)c(Nc4nccc(-c5cccnc5)n4)c3)cc(C(F)(F)F)c2)cn1 [Nilotinib, reference compound] | > 0.1 mM |  |  |  | 0.00058 mM |  |  |  |  |  |  |  |  |  |  |  |  | 

The next lines start with results.

Row | IC50 [1] | IC50 [3, 5] | IC50 [3, 6] | IC50 [3, 7] | IC50 [4] | IC50 [3, 12] | IC50 [3, 13] | IC50 [3, 14] | IC50 [3, 18] | SMILES | SI [2] | IC50 [2, 8] | IC50 [2, 9] | IC50 [2, 10] | IC50 [2, 11] | IC50 [2, 15] | IC50 [2, 16] | IC50 [2, 17] | selectivity ratio at 4 h [2]
4 | 0.00339 mM | > 30 nM | > 30 nM | > 30 nM | 0.00461 mM |  |  |  |  | Cc1ccc(C(=O)Nc2ccc(CN3Cc4ccc(O)cc4C3)c(Cl)c2)cc1C#Cc1cnc2cccnn12 [CD-1-067, N-(3-chloro-4-((5-hydroxyisoindolin-2-yl)methyl)phenyl)-3-(imidazo [1,2-b]pyridazin-3-ylethynyl)-4-methylbenzamide] | <26 |  |  |  |  |  |  |  | 
5 | 0.00199 mM |  |  | 0.39 nM | 0.0118 mM | 0.413 nM | 0.392 nM | 0.371 nM |  | Cc1ccc(C(=O)Nc2ccc(CN3CCN(CCO)CC3)c(C3CC3)c2)cc1C#Cc1cnc2cccnn12 [TK3-144, N-[3-cyclopropyl-4-[[4-(2-hydroxyethyl)piperazin-1-yl]methyl]phenyl]-3-(2-imidazo[1,2-b]pyridazin-3-ylethynyl)-4-methyl-benzamide] | 263 | 103 nM | 105 nM | 102 nM | 103 nM |  |  |  | 
6 | 0.00102 mM |  |  | 0.3 nM | 0.00801 mM | 0.31 nM | 0.297 nM | 0.285 nM |  | Cc1ccc(C(=O)Nc2ccc(CN3CCN(CCO)CC3)c(Cl)c2)cc1C#Cc1cnc2cccnn12 [TK3-141, N-[3-chloro-4-[[4-(2-hydroxyethyl)piperazin-1-yl]methyl]phenyl]-3-(2-imidazo[1,2-b]pyridazin-3-ylethynyl)-4-methyl-benzamide] | 1158 | 345 nM | 138 nM | 552 nM | 345 nM |  |  |  | 
7 | 0.0137 mM | 11.1 nM | 10.1 nM | 10.6 nM | 0.00728 mM |  |  |  | 10.6 nM | Cc1ccc(C(=O)Nc2ccc(CN3Cc4cn[nH]c4C3)c(Cl)c2)cc1C#Cc1cnc2cccnn12 [ZD-3-167, N-[3-chloro-4-(4,6-dihydro-1H-pyrrolo[3,4-c]pyrazol-5-ylmethyl)phenyl]-3-(2-imidazo[1,2-b]pyridazin-3-ylethynyl)-4-methyl-benzamide] | >943 |  |  |  | > 10000 nM | 10200 nM | > 10000 nM | > 10000 nM | 963
